Measurements from patent US9155791B2, “Metallation enhancements in tumor-imaging and PDT therapy” (Health Research, Inc., priority 2010, dated 2015).

System: tumors
Assay: Fluorescence tumor imaging dose versus PDT therapeutic dose (FIG. 4)
Format: in vivo

CCCCCCOC(C)c1c(C)c2cc3nc(c4c5[nH]c(cc6nc(cc1[nH]2)C(C)=C6CC)c(C)c5C(=O)C4)C(CCC(=O)Nc1ccc(SC2=C(C=CC4=[N+](CCCCS(=O)(=O)[O-])c5ccc6ccccc6c5C4(C)C)CCCC2=CC=C2N(CCCCS(=O)(=O)[O-])c4ccc5ccccc5c4C2(C)C)cc1)C3C.[Na+] (stereo not shown) [HPPH-CD]
therapeutic dose relative to tumor-imaging dose (fold higher): ~10 fold
